According to patent US10189854B2, “Substituted pyrimidine compounds” (Grünenthal GmbH, priority 2014, dated 2019):

The compounds below were run against human PDE4B1 (Homo sapiens (Human), UniProt Q07343) (assay: cAMP HTRF assay to determine the activity of hPDE4B1). Settings: IC50 inhibition of PDE4B; human recombinant PDE4B1, cAMP HTRF assay.
Type: biochemical
Method: Biological Testing cAMP HTRF® Assay to Determine the Activity of hPDE4B1
The inhibiting effect of the compounds on the enzyme activity of human PDE4B1 was measured by the quantification of 5′-adenosine monophosphate (5′-AMP), which is formed from 3′,5′-cyclic adenosine monophosphate (cAMP). Human recombinant enzyme, expressed in Sf9 cells, and the HTRF (homogeneous time-resolved fluorescence) detection method were used in the assay.
The test compound or water (control) was mixed with the human recombinant PDE4B1 enzyme (4.8 U) in a buffer consisting of 44.4 mM tris-HCl, 5.28 mM MgCl2, 2.64 mM DTT and 0.044% Tween 20 (pH 7.8). After adding the cAMP enzyme substrate (final concentration 40 nM), the mixture was incubated for 30 minutes at room temperature. Then a fluorescence acceptor (Dye2 marked with cAMP), a fluorescence donor (anti-cAMP antibody marked with a europium cryptate) and the non-specific phosphodiesterase inhibitor IBMX (3-isobutyl-1-methylxanthine; final concentration 1 mM) were added. After 60 min the fluorescence transfer, which correlates with the amount of remaining cAMP, was measured with a microplate reader (Rubystar, BMG) at λex=337 nm, λem=620 nm and λem=665 nm. The enzyme activity was calculated from the quotient formed from the measured signal at 665 nm and that at 620 nm. The result was expressed as the percentage inhibition of enzyme activity of the control (without PDE4 inhibitor). The enzyme was omitted for measurement of the basal control.
[N. Saldou et al., Comparison of recombinant human PDE4 isoforms: interaction with substrate and inhibitors, Cell. Signal. Vol. 10, No. 6, 427-440, 1998]. Several compounds according to the invention are tested in the above-described assay.

Sequence of human PDE4B1 (Q07343 whole entry): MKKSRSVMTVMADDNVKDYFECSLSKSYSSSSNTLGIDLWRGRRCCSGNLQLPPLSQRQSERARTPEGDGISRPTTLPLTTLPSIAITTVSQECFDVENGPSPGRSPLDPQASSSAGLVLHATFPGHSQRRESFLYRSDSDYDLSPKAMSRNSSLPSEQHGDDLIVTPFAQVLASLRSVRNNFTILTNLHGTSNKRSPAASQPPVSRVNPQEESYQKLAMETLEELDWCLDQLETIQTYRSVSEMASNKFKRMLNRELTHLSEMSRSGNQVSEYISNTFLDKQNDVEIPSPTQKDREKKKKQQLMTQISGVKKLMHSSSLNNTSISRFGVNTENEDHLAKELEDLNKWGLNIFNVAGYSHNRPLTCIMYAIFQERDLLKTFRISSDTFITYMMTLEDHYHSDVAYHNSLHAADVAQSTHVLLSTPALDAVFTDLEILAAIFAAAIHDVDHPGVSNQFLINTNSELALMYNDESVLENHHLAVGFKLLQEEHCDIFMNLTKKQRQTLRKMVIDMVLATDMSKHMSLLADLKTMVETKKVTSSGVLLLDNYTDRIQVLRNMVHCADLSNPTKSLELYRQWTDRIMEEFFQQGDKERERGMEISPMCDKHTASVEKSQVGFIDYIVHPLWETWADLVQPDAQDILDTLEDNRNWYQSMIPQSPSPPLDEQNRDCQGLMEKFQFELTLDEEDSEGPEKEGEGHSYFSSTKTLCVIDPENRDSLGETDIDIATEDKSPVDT

Compound	IC50 [µM]
O=C(c1ccc2c(c1)N(c1ncc(-c3ccccc3F)cn1)CC21CC1)N1CCCCC12COC2 [Compound 80, [1-[5-(2-Fluorophenyl)-pyrimidin-2-yl]-spiro[1,2-dihydro-indole-3,1′-cyclopropane]-6-yl]-(2-oxa-5-azaspiro[3.5]nonan-5-yl)-methanone]	0.1 to 1
O=C(c1ccc2c(c1)N(c1ncc(Cc3ccccc3F)cn1)CC21CC1)N1CCOCC1 [Compound 178, [1-[5-[(2-Fluorophenyl)-methyl]-pyrimidin-2-yl]-spiro[1,2-dihydro-indole-3,1′-cyclopropane]-6-yl]-morpholin-4-yl-methanone]	0.1 to 1
CC(=O)N1CCNC(C(=O)c2ccc3c(c2)N(c2ncc(-c4ccccc4F)cn2)CC32CC2)C1 (centres unmarked) [Compound 85, 1-[5-[1-[5-(2-Fluorophenyl)-pyrimidin-2-yl]-spiro[1,2-dihydro-indole-3,1′-cyclopropane]-6-carbonyl]-piperazin-1-yl]-ethanone]	< 0.1
O=C(c1ccc2c(c1)N(c1ncc(-c3cn[nH]c3C(F)(F)F)cn1)CC21CC1)N1CCOCC1 [Compound 140, Morpholin-4-yl-[1-[5-[5-(trifluoromethyl)-1H-pyrazol-4-yl]-pyrimidin-2-yl]-spiro[1,2-dihydro-indole-3,1′-cyclopropane]-6-yl]-methanone]	< 0.1
O=C(c1ccc2c(c1)N(c1ncc(-c3c(F)cncc3F)cn1)CC21CC1)N1CCOCC1 [Compound 166, [1-[5-(3,5-Difluoro-pyridin-4-yl)-pyrimidin-2-yl]-spiro[1,2-dihydro-indole-3,1′-cyclopropane]-6-yl]-morpholin-4-yl-methanone]	< 0.1
COCCCNC(=O)c1ccc2c(c1)N(c1ncc(-c3ccccc3F)cn1)CC21CC1 [Compound 75, 1-[5-(2-Fluorophenyl)-pyrimidin-2-yl]-N-(3-methoxy-propyl)-spiro[1,2-dihydro-indole-3,1′-cyclopropane]-6-carboxylic acid amide]	0.1 to 1
CN(CCO)C(=O)c1ccc2c(c1)N(c1ncc(-c3cccc(F)c3)cn1)CC21CC1 [Compound 129, 1-[5-(3-Fluorophenyl)-pyrimidin-2-yl]-N-(2-hydroxy-ethyl)-N-methyl-spiro[1,2-dihydro-indole-3,1′-cyclopropane]-6-carboxylic acid amide]	< 0.1
Cc1ccc(F)c(-c2cnc(N3CC4(CC4)c4ccc(C(=O)N5CCOCC5)cc43)nc2)c1 [Compound 52, [1-[5-(2-Fluoro-5-methyl-phenyl)-pyrimidin-2-yl]-spiro[1,2-dihydro-indole-3,1′-cyclopropane]-6-yl]-morpholin-4-yl-methanone]	< 0.1
N[C@H]1CCN(C(=O)c2ccc3c(c2)N(c2ncc(-c4ccccc4F)cn2)CC32CC2)C1 [Compound 115, [(3S)-3-Amino-pyrrolidin-1-yl]-[1-[5-(2-fluorophenyl)-pyrimidin-2-yl]-spiro[1,2-dihydro-indole-3,1′-cyclopropane]-6-yl]-methanone]	< 0.1
NC(=O)c1ccc(-c2cnc(N3CC4(CC4)c4ccc(C(=O)N5CCNCC5)cc43)nc2)c(F)c1 [Compound 119, 3-Fluoro-4-[2-[6-(piperazine-1-carbonyl)-spiro[1,2-dihydro-indole-3,1′-cyclopropane]-1-yl]-pyrimidin-5-yl]-benzamide]	< 0.1
O=C(c1ccc2c(c1)N(c1ncc(-c3cc(F)cnc3F)cn1)CC21CC1)N1CCOCC1 [Compound 163, [1-[5-(2,5-Difluoro-pyridin-3-yl)-pyrimidin-2-yl]-spiro[1,2-dihydro-indole-3,1′-cyclopropane]-6-yl]-morpholin-4-yl-methanone]	< 0.1
N#Cc1ccc(F)c(-c2cnc(N3CC4(CC4)c4ccc(C(=O)N5CC[C@@H](N)C5)cc43)nc2)c1 [Compound 123, 3-[2-[6-[(3R)-3-Amino-pyrrolidine-1-carbonyl]-spiro[1,2-dihydro-indole-3,1′-cyclopropane]-1-yl]-pyrimidin-5-yl]-4-fluoro-benzonitrile]	< 0.1
O=C(c1ccc2c(c1)N(c1ncc(-c3sccc3Cl)cn1)CC21CC1)N1CCOCC1 [Compound 133, [1-[5-(3-Chloro-thiophen-2-yl)-pyrimidin-2-yl]-spiro[1,2-dihydro-indole-3,1′-cyclopropane]-6-yl]-morpholin-4-yl-methanone]	0.1 to 1
O=C(c1ccc2c(c1)N(c1ncc(-c3ccccc3F)cn1)CC21CC1)N1CCN(C2CC2)CC1 [Compound 66, (4-Cyclopropyl-piperazin-1-yl)-[1-[5-(2-fluorophenyl)-pyrimidin-2-yl]-spiro[1,2-dihydro-indole-3,1′-cyclopropane]-6-yl]-methanone]	1 to 10
O=C(c1ccc2c(c1)N(c1ncc(-c3cccc(Cl)c3)cn1)CC21CC1)N1CCOCC1 [Compound 51, [1-[5-(3-Chlorophenyl)-pyrimidin-2-yl]-spiro[1,2-dihydro-indole-3,1′-cyclopropane]-6-yl]-morpholin-4-yl-methanone]	0.1 to 1
O=C(c1ccc2c(c1)N(c1ncc(-c3ccccc3C3CC3)cn1)CC21CC1)N1CCOCC1 [Compound 62, [1-[5-(2-Cyclopropyl-phenyl)-pyrimidin-2-yl]-spiro[1,2-dihydro-indole-3,1′-cyclopropane]-6-yl]-morpholin-4-yl-methanone]	1 to 10

Further lines, results first:

IC50 [µM]	Compound
< 0.1	O=C(c1ccc2c(c1)N(c1ncc(-c3ccc(F)s3)cn1)CC21CC1)N1CCOCC1 [Compound 148, [1-[5-(5-Fluoro-thiophen-2-yl)-pyrimidin-2-yl]-spiro[1,2-dihydro-indole-3,1′-cyclopropane]-6-yl]-morpholin-4-yl-methanone]
< 0.1	COc1cccc(-c2cnc(N3CC4(CC4)c4ccc(C(=O)N5CCOCC5)cc43)nc2)c1 [Compound 48, [1-[5-(3-Methoxyphenyl)-pyrimidin-2-yl]-spiro[1,2-dihydro-indole-3,1′-cyclopropane]-6-yl]-morpholin-4-yl-methanone]
< 0.1	CN(C)C(=O)c1ccc2c(c1)N(c1ncc(-c3cccnc3F)cn1)CC21CC1 [Compound 174, 1-[5-(2-Fluoro-pyridin-3-yl)-pyrimidin-2-yl]-N,N-dimethyl-spiro[1,2-dihydro-indole-3,1′-cyclopropane]-6-carboxylic acid amide]
< 0.1	[1-[5-(6-Chloro-pyrimidin-4-yl)-pyrimidin-2-yl]-spiro[1,2-dihydro-indole-3,1′-cyclopropane]-6-yl]-morpholin-4-yl-methanone [Compound 206]
< 0.1	N#Cc1cccc(-c2cnc(N3CC4(CC4)c4ccc(C(=O)N5CCOCC5)cc43)nc2)c1 [Compound 56, 3-[2-[6-(Morpholine-4-carbonyl)-spiro[1,2-dihydro-indole-3,1′-cyclopropane]-1-yl]-pyrimidin-5-yl]-benzonitrile]
< 0.1	CN(C)c1ccnc(-c2cnc(N3CC4(CC4)c4ccc(C(=O)N5CCOCC5)cc43)nc2)c1 [Compound 208, [1-[5-(4-Dimethylamino-pyridin-2-yl)-pyrimidin-2-yl]-spiro[1,2-dihydro-indole-3,1′-cyclopropane]-6-yl]-morpholin-4-yl-methanone]
< 0.1	O=C(c1ccc2c(c1)N(c1ncc(-c3cccc(F)c3F)cn1)CC21CC1)N1CCOCC1 [Compound 15, [1-[5-(2,3-Difluoro-phenyl)-pyrimidin-2-yl]-spiro[1,2-dihydro-indole-3,1′-cyclopropane]-6-yl]-morpholin-4-yl-methanone]
